Results: patent publication US20230202985A1, “Indoles, Indazoles, and Related Analogs for Inhibiting YAP/TAZ-TEAD” (THE KATHOLIEKE UNIVERSITEIT LEUVEN, priority 2021, published 2023)

Assays:
Type in all cases: cell-based
NCI-H226 = test: Mesothelioma cell line proliferation assay (ATPlite), NCI-H226; conditions: Homo sapiens, 144 h; NCI-H226 cells, 6 days with compound, cell viability by ATPlite
Method: (§1) Mesothelioma cell lines, NCI-H226 and NCI-H2052 (all sourced from the ATCC cell culture collection) are plated in 96-well plates (Corning® 96 Well White Polystyrene Microplate clear flat bottom, white polystyrene (TC-Treated)), at 1500 cells/well in full medium (RPMI 1640 ATCC modification with L-glutamine, HEPES, Phenol Red, Sodium Pyruvate, High glucose, Low sodium bicarbonate and 10% fetal bovine serum). Cells are incubated overnight at 37° C. in an incubator with 5% CO2. Then compounds, dissolved in DMSO, are added in dose-response. Cells are incubated with compound dilutions for another 6 days at 37° C. in an incubator with 5% CO2. Cell viability is quantitated using the ATPlite kit (Perkin-Elmer) and the luminescence is read-out using an Envision instrument (Perkin-Elmer). The amount of relative light units produced using the ATPlite kit is used to calculated percent of inhibition.
(§2) The activities of some example compounds are depicted in Table 7. The activity ranges A, B and C refer to EC50 values in the mesothelioma cell line proliferation assay as described as follows: “A”: EC50<1 μM; “B”: 1 μM≤EC50≤10 μM and “C”: EC50>10 μM; NT: not tested.

[1] = tested on: YAP/TAZ-TEAD transcription; test: Reporter gene assay for measuring the inhibition of YAP/TAZ-TEAD transcription (TEAD-responsive element luciferase reporter in Hek293T cells); conditions: Homo sapiens, HEK-293T; Hek293T cells transfected with TEAD-responsive luciferase reporter, 24 hours incubation
Method: Hek293T cells are cultured in DMEM supplemented with 10% fetal bovine serum, Sodium pyruvate, Sodium bicarbonate, L-glutamine. The cells are harvested and transiently transfected with TEAD-responsive element luciferase reporter. Transfected cells are plated in 384-wells plate containing pre-diluted compounds. After 24 hours incubation at 37° C./5% CO2, assay plates were cooled down to RT and levelled to an equal volume per well, prior to the addition of 25 uL luciferase substrate SteadyLite (Perkin Elmer)/well. The plate was shaken for 10 min at 600 rpm, centrifuged for 1 min at 500 rpm and measured with an Envision reader (PerkinElmer). The amount of relative light units produced by the TEAD reporter is used to calculated percent of inhibition.
The percent of reporter inhibition was calculated in the presence of a positive control inhibitor (100% inhibition) versus a condition with the presence of the vehicle basal activity of the reporter (0% inhibition). The ability of a test compound to inhibit this activity was determined as:
Percentage inhibition=[1−((RLU determined in the presence of vehicle−RLU determined for sample with test compound present) divided by (RLU determined in the presence of vehicle−RLU determined for sample with positive control inhibitor))]*100
The activities of example compounds tested are depicted in Table 6. The activity ranges A, B and C refer to IC50 values in the reporter gene assay as follows: “A”: IC50<1 μM; “B”: 1 μM≤IC50≤20 μM and “C”: IC50>20 μM; NT=not tested.

NCI-H2052 = test: Mesothelioma cell line proliferation assay (ATPlite), NCI-H2052; conditions: Homo sapiens, 144 h; NCI-H2052 cells, 6 days with compound, cell viability by ATPlite
Method: as §1, §2

SMILES	EC50 (NCI-H226) [µM]	EC50 [1] [µM]	EC50 (NCI-H2052) [µM]
C=CC(=O)NCc1nn(-c2ccc(C(F)(F)F)cc2)c2ccc(OC[C@@H]3CCOC3)cc12 (single isomer, unassigned) [compound 48]	< 1	< 1	< 1
C=CC(=O)NCc1nn(-c2ccc(C(F)(F)F)cc2)c2cc(OC3CC3)ccc12 [compound 50, N-[[6-(cyclopropoxy)-1-[4-(trifluoromethyl)phenyl]indazol-3-yl]methyl]prop-2-enamide]	< 1	< 1	< 1
CC(=O)Nc1cn(-c2ccc(C(F)(F)F)cc2)c2ccccc12 [compound 21, N-(1-(4-(trifluoromethyl)phenyl)-1H-indol-3-yl)acetamide]	< 1	< 1	1 to 10
C#CCOc1ccc2c(c1)c(CNC(=O)C=C)nn2-c1ccc(C(F)(F)F)cc1 [compound 63, N-[[5-prop-2-ynoxy-1-[4-(trifluoromethyl)phenyl]indazol-3-yl]methyl]prop-2-enamide]	< 1	< 1	< 1

The next lines start with the values.

EC50 (NCI-H226) [µM]	EC50 [1] [µM]	EC50 (NCI-H2052) [µM]	SMILES
< 1	< 1	< 1	C=CC(=O)NCc1nn(-c2ccc(C(F)(F)F)cc2)c2ccc(Oc3ccccc3)cc12 [compound 49, N-[[5-phenoxy-1-[4-(trifluoromethyl)phenyl]indazol-3-yl]methyl]prop-2-enamide]
< 1	< 1	< 1	C=CC(=O)NCc1cc2ccccc2n1-c1ccc(C(F)(F)F)cc1 [compound 29, N-((1-(4-(trifluoromethyl)phenyl)-1H-indol-2-yl)methyl)acrylamide]
< 1	< 1	< 1	C=CC(=O)NCc1nn(-c2ccc(C(F)(F)F)cc2)c2ccc(OCC3CC3)cc12 [compound 66, N-[[5-(cyclopropylmethoxy)-1-[4-(trifluoromethyl)phenyl]indazol-3-yl]methyl]prop-2-enamide]
< 1	< 1	< 1	C=CC(=O)NCc1nn(-c2ccc(C(F)(F)F)cc2)c2ccc(OCc3ccccc3)cc12 [compound 54, N-[[5-benzyloxy-1-[4-(trifluoromethyl)phenyl]indazol-3-yl]methyl]prop-2-enamide]
